Test results as given in article PMC11509018, “Evaluation of the Role of Tanshinone I in an In Vitro System of Charcot-Marie-Tooth Disease Type 2N” (International Journal of Molecular Sciences, 2024).

Target: T1, AlaRS N71Y binding to Nrp1 (Homo sapiens, UniProt P49588, N71Y)
T1 construct: expressed in transfected cells
T1 sequence (P49588 1-968 N71Y): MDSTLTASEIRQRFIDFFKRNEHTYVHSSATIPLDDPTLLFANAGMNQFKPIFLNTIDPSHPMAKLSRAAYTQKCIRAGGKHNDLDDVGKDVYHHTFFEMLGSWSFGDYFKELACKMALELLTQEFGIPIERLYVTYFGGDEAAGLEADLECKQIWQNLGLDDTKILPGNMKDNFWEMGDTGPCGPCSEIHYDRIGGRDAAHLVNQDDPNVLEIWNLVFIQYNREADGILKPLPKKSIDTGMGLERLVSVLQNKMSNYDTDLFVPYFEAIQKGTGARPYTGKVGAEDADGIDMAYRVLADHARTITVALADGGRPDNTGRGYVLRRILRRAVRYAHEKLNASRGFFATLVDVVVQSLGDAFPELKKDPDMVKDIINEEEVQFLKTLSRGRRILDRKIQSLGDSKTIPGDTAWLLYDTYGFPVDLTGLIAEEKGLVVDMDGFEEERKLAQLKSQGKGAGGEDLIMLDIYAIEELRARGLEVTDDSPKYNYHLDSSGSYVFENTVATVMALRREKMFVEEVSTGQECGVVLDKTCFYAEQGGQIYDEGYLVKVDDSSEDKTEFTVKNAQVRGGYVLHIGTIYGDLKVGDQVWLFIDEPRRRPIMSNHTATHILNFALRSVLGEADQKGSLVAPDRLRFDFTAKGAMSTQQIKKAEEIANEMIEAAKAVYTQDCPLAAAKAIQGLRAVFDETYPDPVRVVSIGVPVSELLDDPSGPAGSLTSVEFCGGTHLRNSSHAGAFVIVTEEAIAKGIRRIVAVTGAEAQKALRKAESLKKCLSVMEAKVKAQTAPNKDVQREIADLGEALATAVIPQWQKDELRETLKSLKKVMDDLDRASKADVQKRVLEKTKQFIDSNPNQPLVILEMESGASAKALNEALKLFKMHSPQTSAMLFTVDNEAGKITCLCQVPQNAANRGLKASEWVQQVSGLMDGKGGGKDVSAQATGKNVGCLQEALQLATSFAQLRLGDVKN
Assay: Co-IP of HA-AlaRS mutant with Nrp1 in transfected cells
Type: cell-based
Settings: 20 µM Tanshinone I for 24 h, ImageJ, average of three repeats
Description: To further investigate whether Tanshinone I-induced conformational changes in AlaRS CMT mutants affect their interaction with Nrp1, Co-IP experiments were performed in cells treated with Tanshinone I. By comparing Co-IP results obtained before and after treatment, we assessed the influence of the drug on the binding strength and mode between the AlaRS CMT mutants and Nrp1. […] To confirm the direct effect of Tanshinone I on the interaction between AlaRS CMT mutants and Nrp1, pull-down experiments were performed. […] Given that the interaction between AlaRS mutants and Nrp1 is associated with disease progression in CMT, the ability of Tanshinone I to disrupt this binding highlights its potential to intervene in the pathogenic mechanisms of these diseases.
Figure 7 The impact of Tanshinone I on the interaction between AlaRS mutants and Nrp1. (A) Co-IP assays were conducted to assess the binding between HA-AlaRS mutants and Nrp1, both with and without treatment with 20 µM Tanshinone I for 24 h. […] (C) Pull down assay was performed to detect the binding between AlaRS mutants and GST-Nrp1 b1 with or without 20 µM Tanshinone I. (D) Relative quantification statistics of the AlaRS mutants pulled down from the GST pull down experiments after Tanshinone I treatment were performed using ImageJ. (E) The cell viability of 293T and NSC34 cells treated with different concentrations of Tanshinone I was assessed using the CCK-8 assay over a 24 h period. TEXT PRINTED IN THE PICTURE: (B) Tanshinone I: Mean density band (N71Y): 0.60; Mean density band (G102R): 0.53; Mean density band (R326W): 0.50; Mean density band (R329H): 0.50; Mean density band (E337K): 0.62 | (D) Tanshinone I: Mean density band (N71Y): 0.82; Mean density band (G102R): 0.76; Mean density band (R326W): 0.84; Mean density band (R329H): 0.84; Mean density band (E337K): 0.90
Total protein was extracted from cells using RIPA buffer (50 mM Tris-HCl pH 7.4, 150 mM NaCl, 1% NP40, 1 mM EDTA) supplemented with a protease and phosphatase inhibitor cocktail (Roche, Basel, Switzerland). After SDS-PAGE, the protein on the gel was transferred to a PVDF membrane (Bio-Rad, Hercules, CA, USA) and then blocked with 5% non-fat dry milk in TBST for 1 h. Then, the membranes were incubated with the indicated primary antibodies and corresponding HRP-conjugated secondary antibodies. Signals were detected using the Bio-Rad ChemiDoc system (Bio-Rad, Shanghai, China). The following antibodies were used: Flag (Ray antibody biotech, Beijing, China, 1:3000), HA (Ray antibody biotech, Beijing, China, 1:3000), and GAPDH (Ray antibody biotech, Beijing, China, 1:5000).
To detect the binding of Nrp1 and AlaRS mutants in cells, whole-cell lysates (500 μg) were treated overnight with 2 μg of anti-Flag antibody in RIPA buffer. Next, Protein A/G agarose beads (#sc-2003, Santa Cruz Biotechnology, Santa Cruz, CA, USA) were applied to the lysates and the samples were further treated for 8–12 h with rotation. Samples were washed three times with RIPA buffer. Subsequently, the immunoprecipitations were resuspended into 2 × SDS-loading buffer. The samples were then boiled for 10 min and detected using Western blot. The experiment was repeated three times.

Cc1coc2c1C(=O)C(=O)c1c-2ccc2c(C)cccc12 [Tanshinone I]
Mean density band (N71Y), relative quantification of AlaRS mutant immunoprecipitated: 0.60
